Test results as given in article PMC5584945, “Evaluation of robenidine analog NCL195 as a novel broad-spectrum antibacterial agent” (PLoS ONE, 2017).
Where two headings read alike, the source gives them in different places.

Assays:
[1] = system: Enterococcus faecalis ATCC 29212; experiment: MIC, broth micro-dilution (CLSI), control strain; assay type: cell-based
Protocol: MICs for NCL812 and its analogs (serial two-fold dilutions commencing at 128 μg/ml) were determined (in duplicate) in round bottom 96-well microtitre trays (Sarstedt 82.1582.001), using the broth micro-dilution method recommended by the Clinical and Laboratory Standards Institute (CLSI). […] MIC50, MIC90 and MIC range for NCL812, NCL195 and NCL219 were calculated against each S. pneumoniae, S. aureus or VRE isolate. To assess the potential activity of NCL195 against Gram-negative bacteria, MICs against Acinetobacter spp, E. coli, K. pneumoniae, P. aeruginosa, Proteus spp and Neisseria meningitidis were performed in the presence or absence of 0.08 mM-20 mM EDTA in a standard checkerboard assay.

[2] = system: S. aureus; experiment: MIC, broth micro-dilution (CLSI); assay type: cell-based, Staphylococcus aureus; settings: Staphylococcus aureus; for MIC: read-out: MIC
[3] = system: vancomycin-resistant enterococci (VRE); experiment: MIC, broth micro-dilution (CLSI); assay type: cell-based, enterococci (porcine isolates); settings: for MIC90 / MIC50 / MIC: Enterococcus, VRE
[4] = ATCC 29213 / MSSA, ATCC29213 MSSA (ST5), absence of FBS
[5] = IRISH 1 – HA-EMRSA (ST8), absence of FBS
[6] = IRISH 2 – HA-EMRSA (ST8), absence of FBS
[7] = MRSA / USA300, USA 300 - MRSA (ST8), absence of FBS
[8] = MRSA, AUS2-MRSA (ST239), absence of FBS
[9] = MRSA, AUS3-MRSA (ST239), absence of FBS
[10] = MRSA, BENGAL BAY PVL+ – CA-MRSA (ST772), absence of FBS
[11] = MRSA, Classic–HA-MRSA (ST250), absence of FBS
[12] = MRSA, NY JAPAN – HA MRSA (ST5), absence of FBS
[13] = MRSA, QLD PVL+ –CA-MRSA (ST93), absence of FBS
[14] = MRSA, ST398–CA-MRSA-V (ST398), absence of FBS
[15] = MRSA, WSPP – PVL neg CA MRSA (ST30), absence of FBS
[16] = S2 Table isolates, absence of FBS
[17] = TAIWAN PVL+ – CA-cMRSA (ST59), absence of FBS
[18] = UK 15 PVL+ – HA-EMRSA (ST22), absence of FBS
[19] = UK 15 – HA-EMRSA (ST22), absence of FBS
[20] = UK 16 – HA- EMRSA (ST36), absence of FBS
[21] = UK 17 – HA-EMRSA (ST247), absence of FBS
[22] = S3 Table isolates, absence of FBS

CC1(C)S[C@@H]2[C@H](NC(=O)[C@H](N)c3ccccc3)C(=O)N2[C@H]1C(=O)O [Ampicillin]
1 µg/mL: MIC50 [3, 22] | MIC ([3]; VRE 2 (53 FR), absence of FBS) | MIC ([3]; VRE 3 (55 FR), absence of FBS) | MIC ([3]; VRE 4 (57 FR), absence of FBS) | MIC ([3]; VRE5 (58 FR), absence of FBS) | MIC ([3]; VRE 9 (61 FR), absence of FBS) | MIC ([3]; VRE 12 (290 G), absence of FBS) | MIC ([3]; VRE 13 (251 G), absence of FBS) | MIC ([3]; VRE 15 (63 FR), absence of FBS) | MIC ([3]; VRE 16 (60 FR), absence of FBS) | MIC ([3]; VRE 18 (69 W), absence of FBS) | MIC ([3]; VRE 19 (70 W), absence of FBS) | MIC ([3]; VRE 20 (78 W), absence of FBS)
0.25 to 2 µg/mL: MIC range [3, 22]
0.25 µg/mL: MIC ([3]; VRE 7 (270 G), absence of FBS)
0.5 µg/mL: MIC ([3]; VRE 14 (252 G), absence of FBS)
> 16 µg/mL: MIC90 ([2]; 23 isolates) | MIC [2, 5] | MIC [2, 6] | MIC [2, 7] | MIC [2, 8] | MIC [2, 9] | MIC [2, 11] | MIC [2, 12] | MIC [2, 13] | MIC [2, 14] | MIC [2, 15] | MIC50 [2, 16] | MIC90 [2, 16] | MIC [2, 19] | MIC [2, 20] | MIC [2, 21]
8 µg/mL: MIC [2, 10] | MIC [2, 17]
2 µg/mL: MIC ([1]; ATCC29212, absence of FBS) | MIC [2, 4] | MIC90 ([3]; 20 isolates) | MIC90 [3, 22] | MIC ([3]; VRE 1 (49 FR), absence of FBS) | MIC ([3]; VRE 6 (59 FR), absence of FBS) | MIC ([3]; VRE 8 (277 G), absence of FBS) | MIC ([3]; VRE 10 (62 FR), absence of FBS) | MIC ([3]; VRE 11 (284 G), absence of FBS) | MIC ([3]; VRE 17 (45 FR), absence of FBS)
16 µg/mL: MIC [2, 18]

CCCCCCCCCC(=O)N[C@@H](Cc1c[nH]c2ccccc12)C(=O)N[C@H](CC(N)=O)C(=O)N[C@@H](CC(=O)O)C(=O)N[C@@H]1C(=O)NCC(=O)N[C@@H](CCCN)C(=O)N[C@@H](CC(=O)O)C(=O)N[C@H](C)C(=O)N[C@@H](CC(=O)O)C(=O)NCC(=O)N[C@H](CO)C(=O)N[C@@H]([C@H](C)CC(=O)O)C(=O)N[C@@H](CC(=O)c2ccccc2N)C(=O)O[C@@H]1C [Daptomycin, daptomycin]
0.5 µg/mL: MIC90 ([2]; 23 isolates) | MIC ([2]; ATCC 12600 / MSSA, ATCC12600 [Xen29] (MSSA), 10% FBS) | MIC ([2]; ATCC 12600 / MSSA, ATCC12600 [Xen29] (MSSA), absence of FBS) | MIC [2, 4] | MIC ([2]; ATCC 49775 / MSSA, ATCC 49775 (MSSA), absence of FBS) | MIC [2, 5] | MIC [2, 6] | MIC [2, 7] | MIC [2, 9] | MIC [2, 10] | MIC [2, 11] | MIC [2, 12] | MIC [2, 14] | MIC [2, 15] | MIC50 [2, 16] | MIC90 [2, 16] | MIC [2, 17] | MIC [2, 18] | MIC [2, 19] | MIC [2, 20] | MIC [2, 21] | MIC ([3]; VRE 8 (277 G), absence of FBS) | MIC ([3]; VRE 11 (284 G), absence of FBS) | MIC ([3]; VRE 13 (251 G), absence of FBS) | MIC ([3]; VRE 19 (70 W), absence of FBS)
2 µg/mL: MIC ([1]; ATCC29212, 10% FBS) | MIC ([1]; ATCC29212, absence of FBS) | MIC90 ([3]; 20 isolates) | MIC90 [3, 22] | MIC ([3]; VRE 2 (53 FR), absence of FBS) | MIC ([3]; VRE 3 (55 FR), absence of FBS) | MIC ([3]; VRE 4 (57 FR), absence of FBS) | MIC ([3]; VRE5 (58 FR), absence of FBS) | MIC ([3]; VRE 6 (59 FR), absence of FBS) | MIC ([3]; VRE 10 (62 FR), absence of FBS) | MIC ([3]; VRE 16 (60 FR), absence of FBS) | MIC ([3]; VRE 17 (45 FR), absence of FBS) | MIC ([3]; VRE 20 (78 W), absence of FBS)
0.25 µg/mL: MIC [2, 13]
0.5 to 2 µg/mL: MIC range [3, 22]
1 µg/mL: MIC [2, 8] | MIC50 [3, 22] | MIC ([3]; VRE 1 (49 FR), absence of FBS) | MIC ([3]; VRE 7 (270 G), absence of FBS) | MIC ([3]; VRE 9 (61 FR), absence of FBS) | MIC ([3]; VRE 12 (290 G), absence of FBS) | MIC ([3]; VRE 14 (252 G), absence of FBS) | MIC ([3]; VRE 15 (63 FR), absence of FBS) | MIC ([3]; VRE 18 (69 W), absence of FBS)
